Test in all cases: growth of human tumour cells (NCI), 48 h
For experiment [1], the system named is LXFL 529 NSCLC.
The test system of experiment [2] is HOP-18 NSCLC.
Experiment [3] relates to XF 498 CNS.
Experiment [4] concerns SNB-78 CNS.
Experiment [5] relates to KM20L2 colon.
The test system of experiment [6] is RXF-631 renal.

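1) Cells in 96-well plates. 2) Compound, 48 h, 5 concentrations. 3) Linear interpolation between surrounding doses. 4) Unreached endpoint = highest concentration. The concentration for full growth arrest is given as TGI.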 A value given as a limit tells only on which side of the number the result lay.

Data on six molecules can be found in PubChem BioAssay (NCI).

As for `CCO/C(O)=c1/s/c(=C2/SC(=S)N(c3ccc(C)cc3)C2=O)n(-c2ccccc2)c1=N`, the TGI in experiment [1] and in experiment [2] was over 100 µM throughout.
Turning to `COc1ccc(/C=C2\C(=O)N(C(=O)c3ccc(NC(C)=O)cc3)N=C2C)cc1OC`, the TGI in experiment [2], in experiment [3] and in experiment [4] was over 100 µM throughout.
In the case of `CCOc1cc2c(cc1OC)c[n+](C)c1c3cc(OC)c(OC)cc3ccc21`, the TGI was over 100 µM in experiment [1]; over 100 µM in experiment [5]; over 80.1 µM in experiment [2]; over 89.9 µM in experiment [4]; 44.9 µM in experiment [6].
Consider `Cc1c2ccccc2c(=O)n2c(-c3ccccn3)cccc12`, for which the TGI in experiment [5], in experiment [2], in experiment [3] and in experiment [4] was over 100 µM throughout.
For `CC(C)NC1CCCCC2c3ccccc3C12O` (configuration not stated), the TGI in experiment [1], in experiment [5], in experiment [2], in experiment [3] and in experiment [4] was over 100 µM each time.
Consider `CC(C)C(Sc1nc(-c2ccccc2)c(-c2ccccc2)[nH]1)C(=O)N/N=C/c1ccc(Cl)cc1` (configuration not stated), for which the TGI was 82.8 µM in experiment [1], 46.2 µM in experiment [5] and over 100 µM in experiment [4].
